{
  "source": "paper PMC3726442",
  "about": "(PLoS ONE, 2013)",
  "key": {"[1]": {"test": "Plasma concentrations of tamoxifen and its metabolites in breast cancer patients on tamoxifen, by HPLC-tandem mass spectrometry", "description": "One hundred and thirty five Caucasian patients of Spanish descent recently diagnosed with BC were recruited from the center Fundación Tejerina-Centro de Patología de la Mama (Madrid). Premenopausal and postmenopausal women were enrolled when started on TAM as standard adjuvant therapy after undergoing primary surgery, radiation and adjuvant chemotherapy. Patients were excluded if they had started TAM therapy simultaneously with either adjuvant chemotherapy or adjuvant radiation therapy (or both) or if they were undergoing other adjuvant endocrine therapies. Patients who were pregnant or breast-feeding were also excluded from the study. […] Blood samples were collected within 3 to 60 months of initiating TAM treatment.\nVenous blood was collected from all 135 subjects before taking their daily 20- mg dose of TAM. Ten milliliters of heparin plasma were separated by centrifugation and immediately stored at −20°C until analysis. In addition, one milliliter of an EDTA blood sample was taken for subsequent DNA extraction and genotyping. DNA was isolated from peripheral leukocytes using a QIAamp DNA Blood Mini Kit® (Qiagen, Madrid, Spain) according to the manufacturer’s instructions. The DNA concentration was determined and adjusted to 2–20 ng/ µL.\nTAM and its metabolites were separated and quantified by high-pressure liquid chromatography-tandem mass spectrometry using an Agilent HPLC 1200 system. HPLC experiments were performed using a binary pump G1312A, a G1316A column oven, G1379B degasser and an automatic injector H-ALS G1367B. Mobile phase A and phase B consisted of 0.1% formic acid in water and acetonitrile, respectively. Mobile phases A and B were pumped through a ZORBAX Eclipse XDB-C18 column (150 mm×2.1 mm I.D., 3.5 µm, Agilent USA) at a flow rate of 0.2 mL/min using the gradient shown in Table 1. Separation was conducted at 30°C. 15- µL aliquots were injected and the autosampler needle was rinsed in acetonitrile/water solution (1∶1). The total run time was 20 min. During the first 4.0 and last 2.0 min, the eluate was removed using a divert valve to avoid endogenous compounds entering the mass spectrometer.\nAs a detector, we used an A 6410 Triple Quadrupole mass spectrometer (Agilent Technologies, USA) equipped with a heated electrospray ionization source (Thermo Fisher Scientific, Waltham, MA, USA) operating in positive ion mode. For quantification, multiple reaction monitoring (MRM) chromatograms were acquired using Mass Hunter software version B.01.04 (Agilent Technologies, USA). Positive ions were created at atmospheric pressure. Quadrupoles operated at unit resolution (0.7 Da).\nA 300- µL volume of 1% formic acid in acetonitrile containing internal standards was added to a 100- µL serum aliquot. After vortexing and centrifugation, the clear supernatant was transferred to a HybridSPE column (Supelco) and the eluents stored at 2–8°C until analysis. Samples were analyzed in triplicate.\nDescriptive statistics were calculated using standard methods. Metabolic ratios were calculated as the concentration of substrate/concentration of metabolite. The non-normal distribution of data was confirmed by the Kolmogorov-Smirnov test. Levels of TAM, metabolites and ratios between genotype groups were compared using Wilcoxon-Mann-Whitney or Kruskal-Wallis tests. All statistical tests (two-sided) were performed using SPSS software (version 18.0 SPSS, Chicago, IL). Significance was set at a p<0.05."}, "CYP3A4/5": {"test_system": "CYP3A4/5", "parameters": "method as in PMID 19088019", "details": "major primary metabolite, CYP3A4/5-mediated; cited from earlier work"}, "[2]": {"details": "all samples analyzed, n = 125, before daily 20 mg TAM dose"}},
  "data": [
    {"smiles": "CC/C(=C(\\c1ccccc1)c1ccc(OCCNC)cc1)c1ccccc1", "note": "[N-desmethyl-tamoxifen]", "values": [
      {"measurement": "mean plasma concentration (±SD)", "setting": "[1]; [2]", "value": "450.54 ± 188.79", "unit": "ng/mL"},
      {"measurement": "median plasma concentration", "setting": "[1]; [2]", "value": 418.46, "unit": "ng/mL"},
      {"measurement": "mean concentration relative to the TAM concentration", "setting": "[1]; all samples, n = 125", "value": "over 2 times"},
      {"measurement": "plasma concentration, mean ±SD", "setting": "[1]; genotype SULT1A1 *2/*2, n = 15", "value": "459.42 ± 160.94", "unit": "ng/mL"},
      {"measurement": "plasma concentration, median", "setting": "[1]; genotype SULT1A1 *2/*2, n = 15", "value": 432.49, "unit": "ng/mL"},
      {"measurement": "plasma concentration, range", "setting": "[1]; genotype SULT1A1 *2/*2, n = 15", "value": "(212.67–782.92) ng/mL"},
      {"measurement": "plasma concentration, mean ±SD", "setting": "[1]; genotype SULT1A1 wt/*2, n = 46", "value": "441.63 ± 176.28", "unit": "ng/mL"},
      {"measurement": "plasma concentration, median", "setting": "[1]; genotype SULT1A1 wt/*2, n = 46", "value": 418.46, "unit": "ng/mL"},
      {"measurement": "plasma concentration, range", "setting": "[1]; genotype SULT1A1 wt/*2, n = 46", "value": "(196.74–1191.13) ng/mL"},
      {"measurement": "plasma concentration, mean ±SD", "setting": "[1]; genotype SULT1A1 wt/wt, n = 60", "value": "458.09 ± 209.96", "unit": "ng/mL"},
      {"measurement": "plasma concentration, median", "setting": "[1]; genotype SULT1A1 wt/wt, n = 60", "value": 411.53, "unit": "ng/mL"},
      {"measurement": "plasma concentration, range", "setting": "[1]; genotype SULT1A1 wt/wt, n = 60", "value": "(35.96–1210.09) ng/mL"},
      {"measurement": "plasma concentration, mean ±SD", "setting": "[1]; genotype SULT1A2 *2/*2, n = 16", "value": "453.17 ± 128.87", "unit": "ng/mL"},
      {"measurement": "plasma concentration, median", "setting": "[1]; genotype SULT1A2 *2/*2, n = 16", "value": 427.03, "unit": "ng/mL"},
      {"measurement": "plasma concentration, range", "setting": "[1]; genotype SULT1A2 *2/*2, n = 16", "value": "(238.36–782.92) ng/mL"},
      {"measurement": "plasma concentration, mean ±SD", "setting": "[1]; genotype SULT1A2 *2/*3, n = 13", "value": "478.66 ± 162.35", "unit": "ng/mL"},
      {"measurement": "plasma concentration, median", "setting": "[1]; genotype SULT1A2 *2/*3, n = 13", "value": 527.52, "unit": "ng/mL"},
      {"measurement": "plasma concentration, range", "setting": "[1]; genotype SULT1A2 *2/*3, n = 13", "value": "(228.81–676.02) ng/mL"},
      {"measurement": "plasma concentration, mean ±SD", "setting": "[1]; genotype SULT1A2 *3/*3, n = 5", "value": "478.49 ± 198.83", "unit": "ng/mL"},
      {"measurement": "plasma concentration, median", "setting": "[1]; genotype SULT1A2 *3/*3, n = 5", "value": 485.02, "unit": "ng/mL"},
      {"measurement": "plasma concentration, range", "setting": "[1]; genotype SULT1A2 *3/*3, n = 5", "value": "(242.88–768.62) ng/mL"},
      {"measurement": "plasma concentration, mean ±SD", "setting": "[1]; genotype SULT1A2 wt/*2, n = 33", "value": "478.01 ± 247.44", "unit": "ng/mL"},
      {"measurement": "plasma concentration, median", "setting": "[1]; genotype SULT1A2 wt/*2, n = 33", "value": 399.40, "unit": "ng/mL"},
      {"measurement": "plasma concentration, range", "setting": "[1]; genotype SULT1A2 wt/*2, n = 33", "value": "(212.67–1210.09) ng/mL"},
      {"measurement": "plasma concentration, mean ±SD", "setting": "[1]; genotype SULT1A2 wt/*3, n = 16", "value": "425.36 ± 207.64", "unit": "ng/mL"},
      {"measurement": "plasma concentration, median", "setting": "[1]; genotype SULT1A2 wt/*3, n = 16", "value": 324.21, "unit": "ng/mL"},
      {"measurement": "plasma concentration, range", "setting": "[1]; genotype SULT1A2 wt/*3, n = 16", "value": "(167.40–952.85) ng/mL"},
      {"measurement": "plasma concentration, mean ±SD", "setting": "[1]; genotype SULT1A2 wt/wt, n = 38", "value": "428.02 ± 162.17", "unit": "ng/mL"},
      {"measurement": "plasma concentration, median", "setting": "[1]; genotype SULT1A2 wt/wt, n = 38", "value": 413.16, "unit": "ng/mL"},
      {"measurement": "plasma concentration, range", "setting": "[1]; genotype SULT1A2 wt/wt, n = 38", "value": "(35.96–847.98) ng/mL"},
      {"measurement": "plasma concentration, mean ±SD", "setting": "[1]; genotype SULT1E1 *2/*2, n = 5", "value": "455.57 ± 104.52", "unit": "ng/mL"},
      {"measurement": "plasma concentration, median", "setting": "[1]; genotype SULT1E1 *2/*2, n = 5", "value": 497.51, "unit": "ng/mL"},
      {"measurement": "plasma concentration, range", "setting": "[1]; genotype SULT1E1 *2/*2, n = 5", "value": "(311.12–550.12) ng/mL"},
      {"measurement": "plasma concentration, mean ±SD", "setting": "[1]; genotype SULT1E1 wt/*2, n = 28", "value": "462.59 ± 167.53", "unit": "ng/mL"},
      {"measurement": "plasma concentration, median", "setting": "[1]; genotype SULT1E1 wt/*2, n = 28", "value": 426.41, "unit": "ng/mL"},
      {"measurement": "plasma concentration, range", "setting": "[1]; genotype SULT1E1 wt/*2, n = 28", "value": "(196.74–768.62) ng/mL"},
      {"measurement": "plasma concentration, mean ±SD", "setting": "[1]; genotype SULT1E1 wt/wt, n = 88", "value": "448.30 ± 202.82", "unit": "ng/mL"},
      {"measurement": "plasma concentration, median", "setting": "[1]; genotype SULT1E1 wt/wt, n = 88", "value": 399.40, "unit": "ng/mL"},
      {"measurement": "share of primary TAM oxidation", "setting": "CYP3A4/5", "value": 90, "unit": "%"}
    ]}
  ]
}
